The source made the active and inactive calls. The calls are words filed in the database; no cut-off is given here.
Columns and labels:
Histone deacetylase 8 = molecular target: T1, Histone deacetylase 8 (Homo sapiens, UniProt Q9BY41); assay: Inhibition of recombinant human HDAC8 using Boc-Lys (trifluoroacetyl)-AMC as substrate preincubated for 1 hr followed by substrate addition and measured after 1 hr by micro plate reader analysis
T1 sequence (Q9BY41 whole entry): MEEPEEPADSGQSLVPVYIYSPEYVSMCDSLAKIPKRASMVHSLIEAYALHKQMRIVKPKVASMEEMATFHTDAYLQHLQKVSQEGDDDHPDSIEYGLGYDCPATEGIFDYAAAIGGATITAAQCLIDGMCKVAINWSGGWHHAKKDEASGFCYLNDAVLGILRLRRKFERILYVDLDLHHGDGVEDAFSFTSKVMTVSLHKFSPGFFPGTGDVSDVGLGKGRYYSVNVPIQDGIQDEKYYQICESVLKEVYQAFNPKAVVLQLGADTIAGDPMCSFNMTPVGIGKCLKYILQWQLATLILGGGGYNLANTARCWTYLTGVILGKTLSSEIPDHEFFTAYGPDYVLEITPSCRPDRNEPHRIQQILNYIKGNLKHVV

[1] = molecular target: T2, Histone deacetylase 8 (Homo sapiens) (UniProt Q9BY41); assay: Inhibition of recombinant human HDAC8 using Boc-Lys (trifluoroacetyl)-AMC as substrate ay 35 uM preincubated for 1 hr followed by substrate addition and measured after 1 hr by micro plate reader analysis
T2 sequence (whole entry): T1 sequence (Q9BY41 whole entry)

Histone deacetylase 4 [2] = molecular target: T3, Histone deacetylase 4 (Homo sapiens, UniProt P56524); assay: Inhibition of recombinant human HDAC4 using Boc-Lys (trifluoroacetyl)-AMC as substrate preincubated for 1 hr followed by substrate addition and measured after 1 hr by micro plate reader analysis
T3 sequence (P56524 whole entry): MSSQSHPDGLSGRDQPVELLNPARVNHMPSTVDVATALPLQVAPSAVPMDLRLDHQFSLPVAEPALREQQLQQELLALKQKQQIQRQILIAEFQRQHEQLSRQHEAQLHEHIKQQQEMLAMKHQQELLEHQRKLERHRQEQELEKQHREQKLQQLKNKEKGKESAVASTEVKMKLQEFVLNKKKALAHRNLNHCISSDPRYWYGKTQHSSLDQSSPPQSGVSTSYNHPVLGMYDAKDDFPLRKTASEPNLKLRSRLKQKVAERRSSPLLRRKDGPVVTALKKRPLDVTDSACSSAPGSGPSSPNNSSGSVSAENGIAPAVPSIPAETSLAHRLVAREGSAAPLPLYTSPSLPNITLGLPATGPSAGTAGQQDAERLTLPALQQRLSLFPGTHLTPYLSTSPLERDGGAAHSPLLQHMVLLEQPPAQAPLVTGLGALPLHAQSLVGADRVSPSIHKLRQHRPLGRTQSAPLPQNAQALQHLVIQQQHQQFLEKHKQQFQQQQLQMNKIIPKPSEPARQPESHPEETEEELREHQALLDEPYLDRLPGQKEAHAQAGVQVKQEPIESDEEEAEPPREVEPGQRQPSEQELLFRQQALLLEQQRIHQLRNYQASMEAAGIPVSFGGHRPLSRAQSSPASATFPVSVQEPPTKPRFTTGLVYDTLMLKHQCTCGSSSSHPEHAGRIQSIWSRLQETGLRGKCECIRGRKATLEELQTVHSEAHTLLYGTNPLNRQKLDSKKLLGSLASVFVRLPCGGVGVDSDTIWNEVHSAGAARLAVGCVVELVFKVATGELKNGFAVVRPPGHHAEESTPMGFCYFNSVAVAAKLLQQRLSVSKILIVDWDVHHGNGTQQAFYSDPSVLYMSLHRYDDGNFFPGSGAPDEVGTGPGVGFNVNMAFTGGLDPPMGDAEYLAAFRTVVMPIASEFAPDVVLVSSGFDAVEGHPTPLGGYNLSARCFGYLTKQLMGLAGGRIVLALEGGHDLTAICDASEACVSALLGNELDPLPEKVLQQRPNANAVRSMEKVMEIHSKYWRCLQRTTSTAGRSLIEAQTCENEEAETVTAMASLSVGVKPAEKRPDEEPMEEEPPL

Histone deacetylase 4 [3] = molecular target: T3, Histone deacetylase 4; assay: Inhibition of recombinant human HDAC4 using Boc-Lys (trifluoroacetyl)-AMC as substrate ay 35 uM preincubated for 1 hr followed by substrate addition and measured after 1 hr by micro plate reader analysis
[4] = Toxicity in SCID mouse xenografted with human CEM cells assessed as effect on body weight at 20 mg/kg, ip; type: organism-based, CCRF-CEM; conditions: in vivo
HeLa [5] = assay: Cytotoxicity against human HeLa cells assessed as cell death incubated for 20 hrs measured by DNS assay; type: functional
HeLa [6] = assay: Cytotoxicity against human HeLa cells assessed as cell death incubated at 10 uM for 20 hrs measured by DNS assay; type: functional
CCRF-CEM [7] = assay: Cytotoxicity against human CEM cells assessed as cell death incubated at 50 uM for 20 hrs measured by DNS assay; type: functional
[8] = Selectivity index, ratio of CC50 for human HS-27 cells to CC50 for human SH-SY5Y cells; type: functional
HL-60 = assay: Cytotoxicity against human HL-60 cells assessed as cell death incubated at 10 uM for 20 hrs measured by DNS assay; type: functional
MDA-MB-231 [9] = assay: Cytotoxicity against human MDA-MB-231 cells assessed as cell death incubated for 20 hrs measured by DNS assay; type: functional
[10] = Selectivity index, ratio of CC50 for human HS-27 cells to CC50 for human MDA-MB-231 cells; type: functional
CCRF-CEM [11] = assay: Cytotoxicity against human CEM cells assessed as cell death incubated at 10 uM for 20 hrs measured by DNS assay; type: functional
SH-SY5Y [12] = assay: Cytotoxicity against human SH-SY5Y cells assessed as cell death incubated for 20 hrs measured by DNS assay; type: functional
[13] = Selectivity index, ratio of CC50 for human HS-27 cells to CC50 for human Ramos cells; type: functional
SH-SY5Y [14] = assay: Cytotoxicity against human SH-SY5Y cells assessed as cell death incubated at 10 uM for 20 hrs measured by DNS assay; type: functional
MDA-MB-231 [15] = assay: Cytotoxicity against human MDA-MB-231 cells assessed as cell death incubated at 10 uM for 20 hrs measured by DNS assay; type: functional
Ramos [16] = assay: Cytotoxicity against human Ramos cells assessed as cell death incubated for 20 hrs measured by DNS assay; type: functional
Ramos [17] = assay: Cytotoxicity against human Ramos cells assessed as cell death incubated at 10 uM for 20 hrs measured by DNS assay; type: functional
[18] = Selectivity index, ratio of CC50 for human HS-27 cells to CC50 for human HeLa cells; type: functional
HS27 [19] = assay: Cytotoxicity against human HS-27 cells assessed as cell death incubated for 20 hrs measured by DNS assay; type: toxicity, cell-based; conditions: hs27, 20 h
CCRF-CEM [20] = assay: Cytotoxicity against human CEM cells assessed as cell death incubated for 20 hrs measured by DNS assay; type: functional
[21] = Selectivity index, ratio of CC50 for human HS-27 cells to CC50 for human CEM cells; type: functional
HS27 [22] = assay: Cytotoxicity against human HS-27 cells assessed as cell death incubated at 10 uM for 20 hrs measured by DNS assay; type: toxicity, cell-based; conditions: hs27, 20 h
[23] = Toxicity in SCID mouse xenografted with human CEM cells assessed as behavioral changes at 50 mg/kg, ip; type: organism-based, CCRF-CEM; conditions: in vivo
[24] = Toxicity in SCID mouse xenografted with human CEM cells assessed as effect on body weight at 50 mg/kg, ip; type: organism-based, CCRF-CEM; conditions: in vivo

| Compound | IC50 (Histone deacetylase 8) [µM] | inhibition [1] | IC50 (Histone deacetylase 4 [2]) [µM] | inhibition (Histone deacetylase 4 [3]) | further results |
| --- | --- | --- | --- | --- | --- |
| COc1cccc2c1C(=O)c1c(O)c3c(c(O)c1C2=O)C[C@@](O)(C(=O)CO)C[C@@H]3O[C@H]1C[C@H](N)[C@H](O)[C@H](C)O1 [DOXORUBICIN] |  |  |  |  | Activity [4]: Non-Toxic |
| CCc1ccc(CCOc2ccc(CC3SC(=O)NC3=O)cc2)nc1 (configuration not stated) [PIOGLITAZONE] |  |  |  |  | Activity (HeLa [6]): 0%; Activity (CCRF-CEM [7]): 0% |
| O=C(COc1ccc2cc(/C=C3/SC(=O)NC3=O)ccc2c1)Nc1ccccc1Oc1ccccc1 | > 50 | Active | 5.2 | Active | Selectivity Index [8]: >10; CC50 (HeLa [5]): 10.2 µM; Activity (HL-60): 0%; CC50 (MDA-MB-231 [9]): 10.3 µM; Selectivity Index [10]: >10; Activity (CCRF-CEM [11]): 40.24%; CC50 (SH-SY5Y [12]): 52.3 µM; Selectivity Index [13]: >10; Activity (SH-SY5Y [14]): >40%; Activity (MDA-MB-231 [15]): >40%; CC50 (Ramos [16]): 10 µM; Activity (Ramos [17]): >40%; Selectivity Index [18]: >10 |
| O=C(COc1ccc2cc(/C=C3/SC(=O)NC3=O)ccc2c1)Nc1cccc(C(F)(F)F)c1 | > 50 | Active | 2.5 | Active | Activity (HL-60): 19.55%; Activity (CCRF-CEM [11]): 25.87%; Activity (HeLa [6]): 39.09%; Selectivity Index [13]: >10; Activity (SH-SY5Y [14]): 0%; Activity (MDA-MB-231 [15]): 5.96%; CC50 (Ramos [16]): 6.2 µM; Activity (Ramos [17]): >40% |
| COc1ccc(NC(=O)COc2ccc3cc(/C=C4/SC(=O)NC4=O)ccc3c2)cc1 | > 50 | Active | 4.7 | Active |  |
| Cc1cc(NC(=O)COc2ccc3cc(/C=C4/SC(=O)NC4=O)ccc3c2)no1 | > 50 | Active | 1.7 | Active |  |
| O=C(CCCCCCC(=O)Nc1ccccc1)NO [VORINOSTAT] |  |  |  |  | CC50 (HeLa [5]): 2.8 µM; CC50 (CCRF-CEM [20]): 2.5 µM |
| O=C(COc1ccc2cc(/C=C3/SC(=O)NC3=O)ccc2c1)Nc1cc(Cl)cc(C(F)(F)F)c1 | > 50 | Active | 4 | Active |  |
| O=C(COc1ccc2cc(/C=C3/SC(=O)NC3=O)ccc2c1)Nc1cccc(Cl)c1 | > 50 | Active | 3.8 | Active | Selectivity Index [21]: >10; Activity (HS27 [22]): 22.56%; Activity (HL-60): 27.58%; Activity (CCRF-CEM [11]): >40%; CC50 (CCRF-CEM [20]): 10.6 µM; Activity (HeLa [6]): 29.68%; Selectivity Index [13]: >10; Activity (SH-SY5Y [14]): 10.79%; Activity (MDA-MB-231 [15]): 2.84%; CC50 (Ramos [16]): 9.1 µM; Activity (Ramos [17]): >40% |
| COc1cccc(NC(=O)COc2ccc3cc(/C=C4/SC(=O)NC4=O)ccc3c2)c1 | 7.6 | Active | 1.6 | Active | Selectivity Index [21]: >10; Activity (HS27 [22]): 24.69%; CC50 (HeLa [5]): 10.4 µM; Activity (HL-60): 0%; CC50 (MDA-MB-231 [9]): 9.8 µM; Selectivity Index [10]: >10; Activity (CCRF-CEM [11]): >40%; CC50 (CCRF-CEM [20]): 10.7 µM; Selectivity Index [13]: >10; Activity (SH-SY5Y [14]): 0%; Activity (MDA-MB-231 [15]): >40%; CC50 (Ramos [16]): 9.3 µM; Activity (Ramos [17]): >40%; Selectivity Index [18]: >10 |
| O=C(COc1ccc2cc(/C=C3/SC(=O)NC3=O)ccc2c1)Nc1c(F)cc(F)cc1Br | > 50 |  | 1.1 |  | CC50 (HeLa [5]): 10.4 µM; CC50 (MDA-MB-231 [9]): 9.8 µM; CC50 (HS27 [19]): 39.9 µM; CC50 (CCRF-CEM [20]): 9.6 µM; CC50 (SH-SY5Y [12]): 21.8 µM; CC50 (Ramos [16]): 9.6 µM |
| O=C(COc1ccc2cc(/C=C3/SC(=O)NC3=O)ccc2c1)Nc1ccc([N+](=O)[O-])cc1 | 4 |  | 1.7 |  | CC50 (MDA-MB-231 [9]): 55.8 µM |

Now from value to compound, other results behind:

| IC50 (Histone deacetylase 8) [µM] | inhibition [1] | IC50 (Histone deacetylase 4 [2]) [µM] | inhibition (Histone deacetylase 4 [3]) | Compound | further results |
| --- | --- | --- | --- | --- | --- |
| 17 | Active | 3.6 | Active | CCOc1ccc2nc(NC(=O)COc3ccc4cc(/C=C5/SC(=O)NC5=O)ccc4c3)sc2c1 |  |
| > 50 | Active | 5.5 | Active | O=C(COc1ccc2cc(/C=C3/SC(=O)NC3=O)ccc2c1)Nc1ccc(Cl)c(Cl)c1 |  |
| 7.2 | Active | 0.84 | Active | O=C(COc1ccc2cc(/C=C3/SC(=O)NC3=O)ccc2c1)Nc1cccc(F)n1 |  |
| 4.5 | Active | 2.1 | Active | O=C(COc1ccc2cc(/C=C3/SC(=O)NC3=O)ccc2c1)Nc1ccccc1 |  |
| 16 |  | 2.9 |  | O=C(COc1ccc2cc(/C=C3/SC(=O)NC3=O)ccc2c1)Nc1ccc(Br)cc1 | CC50 (HeLa [5]): 10.1 µM |
| > 50 | Active | 1.1 | Active | Cc1ccc(NC(=O)COc2ccc3cc(/C=C4/SC(=O)NC4=O)ccc3c2)cc1Cl |  |
| > 50 | Active | 3.9 | Active | O=C(COc1ccc2cc(/C=C3/SC(=O)NC3=O)ccc2c1)Nc1ccc(F)cc1F |  |
| > 50 | Active | 4.9 | Active | O=C(COc1ccc2cc(/C=C3/SC(=O)NC3=O)ccc2c1)Nc1ccc(Br)c(Br)c1 |  |
| 5.8 | Active | 1.2 | Active | Cc1cccc2sc(NC(=O)COc3ccc4cc(/C=C5/SC(=O)NC5=O)ccc4c3)nc12 |  |
| > 50 |  | 1.9 |  | O=C(COc1ccc2cc(/C=C3/SC(=O)NC3=O)ccc2c1)Nc1ccc(Br)cc1F | CC50 (HS27 [19]): 57 µM; CC50 (CCRF-CEM [20]): 40.9 µM; CC50 (SH-SY5Y [12]): 16 µM |
| > 50 | Active | 17 | Active | O=C(COc1ccc2cc(/C=C3/SC(=O)NC3=O)ccc2c1)Nc1ccccn1 |  |
| 7.4 |  | 0.55 |  | Cc1cc(Br)ccc1NC(=O)COc1ccc2cc(/C=C3/SC(=O)NC3=O)ccc2c1 | CC50 (HeLa [5]): 9.9 µM; CC50 (SH-SY5Y [12]): 91.1 µM |
| 6.6 | Active | 1.6 | Active | O=C(COc1ccc2cc(/C=C3/SC(=O)NC3=O)ccc2c1)Nc1ccc(F)cc1 |  |
| 7.5 | Active | 1.1 | Active | Cc1cccc(NC(=O)COc2ccc3cc(/C=C4/SC(=O)NC4=O)ccc3c2)n1 |  |
| 9 |  | 1.7 |  | Cc1ccc(NC(=O)COc2ccc3cc(/C=C4/SC(=O)NC4=O)ccc3c2)cc1 | Activity [23]: Non-Toxic; CC50 (HeLa [5]): 10.3 µM; CC50 (HS27 [19]): 40.2 µM; CC50 (CCRF-CEM [20]): 2.8 µM; CC50 (SH-SY5Y [12]): 49.5 µM; CC50 (Ramos [16]): 7 µM; Activity [24]: Non-Toxic |
| 9.3 |  |  |  | O=C(CN1C(=O)S/C(=C/c2ccccn2)C1=O)Nc1nc2ccccc2s1 |  |
| 2.3 |  | 15 |  | O=C(COc1ccc2ccccc2c1/C=C1\SC(=O)NC1=O)Nc1ccc([N+](=O)[O-])cc1 |  |
| 2.7 | Active | 0.42 | Active | O=C(COc1ccc2cc(/C=C3/SC(=O)NC3=O)ccc2c1)Nc1nc2ccccc2s1 |  |
